Source: US6710049B2, “Azole compounds as anti-fungal agents” (Ranbaxy Laboratories Limited, priority 2000, dated 2004)
Values after ≈ are worked out from the molar mass of the structure shown.

Experiments:
C albicans A-26 = assay: MIC determination (NCCLS broth method); assay type: cell-based, Candida albicans
Text: (§1) The in-vitro evaluation of the antifungal activity of the compounds can be performed by determining the minimum inhibitory concentration (MIC) as shown in Table 1 which is the concentration of the test compound in Rosewell Park Memorial Institute (RPMI) 1640 liquid medium buffered with 3-(Morpholino)propanesulphonic acid (MOPS) to pH 7, at which there is significant inhibition of the particular fungi. In practice the National Committee for Clinical Laboratory Standard (NCCLS) M27A document for Candida and Cryptococcus and M38P for Aspergillus was used to determine the MIC against yeast and filamentous fungi with suitable modifications for dermatophytes to other filamentous fungi. Three quality control strains were included each time the MIC were determined and readings recorded only when the Quality Control results fell into the acceptable range. After MIC results had been recorded, 100 μl from each of the well showing no growth was spread over Sabouraud Dextrose Agar (SDA) to determine the minimum fungicidal concentration (MFC) as shown in Table 2.

C albicans Y01.19 = assay: MIC determination (NCCLS broth method); assay type: cell-based, Candida albicans
Text: as §1

A flavus E2 - 1043 = assay: MIC determination (NCCLS broth method); assay type: cell-based
Summary of the method: (§2)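 Broth microdilution per NCCLS M27A (yeasts) and M38P (Aspergillus), modified for dermatophytes and other filamentous fungi; RPMI 1640 buffered with MOPS to pH 7. MIC is the lowest concentration giving significant growth inhibition. Wells showing no growth are subcultured onto Sabouraud Dextrose Agar to give the MFC.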

A flavus E4 - 1042 = assay: MIC determination (NCCLS broth method); assay type: cell-based
Summary of the method: as §2

A flavus P2 - 1045 = assay: MIC determination (NCCLS broth method); assay type: cell-based
Summary of the method: as §2

A niger E5 - 1047 = assay: MIC determination (NCCLS broth method); assay type: cell-based
Summary of the method: as §2

A niger P1 - 1046 = assay: MIC determination (NCCLS broth method); assay type: cell-based
Summary of the method: as §2

Alternaria 1051 = assay: MIC determination (NCCLS broth method); assay type: cell-based
Summary of the method: as §2

C krusei 6258 = assay: MIC determination (NCCLS broth method); assay type: cell-based
Summary of the method: as §2

C krusei 766.1 = assay: MIC determination (NCCLS broth method); assay type: cell-based
Summary of the method: as §2

C parapsilosis 22019 = assay: MIC determination (NCCLS broth method); assay type: cell-based
Summary of the method: as §2

C tropicalis 750 = assay: MIC determination (NCCLS broth method); assay type: cell-based
Summary of the method: as §2

Fusarium 1050 = assay: MIC determination (NCCLS broth method); assay type: cell-based
Summary of the method: as §2

Fusarium 1827C = assay: MIC determination (NCCLS broth method); assay type: cell-based
Summary of the method: as §2

Fusarium 2960C = assay: MIC determination (NCCLS broth method); assay type: cell-based
Summary of the method: as §2

H capsulatum = assay: MIC determination (NCCLS broth method); assay type: cell-based
Summary of the method: as §2

Penicillium 1641 = assay: MIC determination (NCCLS broth method); assay type: cell-based
Summary of the method: as §2

Penicillium 191 = assay: MIC determination (NCCLS broth method); assay type: cell-based
Summary of the method: as §2

Penicillium 2548 = assay: MIC determination (NCCLS broth method); assay type: cell-based
Summary of the method: as §2

Penicillium 3162 = assay: MIC determination (NCCLS broth method); assay type: cell-based
Summary of the method: as §2

Penicillium H - 1048 = assay: MIC determination (NCCLS broth method); assay type: cell-based
Summary of the method: as §2

Penicillium I - 1049 = assay: MIC determination (NCCLS broth method); assay type: cell-based
Summary of the method: as §2

Rhizopus (Ceylon) = assay: MIC determination (NCCLS broth method); assay type: cell-based
Summary of the method: as §2

Rhizopus 1052 = assay: MIC determination (NCCLS broth method); assay type: cell-based
Summary of the method: as §2

A fumigatus 1008 = assay: MIC determination (NCCLS broth method); assay type: cell-based, Aspergillus fumigatus
Text: as §1

A fumigatus I - 1011 = assay: MIC determination (NCCLS broth method); assay type: cell-based, Aspergillus fumigatus
Text: as §1

A fumigatus II - 1012 = assay: MIC determination (NCCLS broth method); assay type: cell-based, Aspergillus fumigatus
Text: as §1

A fumigatus J - 1032 = assay: MIC determination (NCCLS broth method); assay type: cell-based, Aspergillus fumigatus
Text: as §1

A fumigatus K - 1033 = assay: MIC determination (NCCLS broth method); assay type: cell-based, Aspergillus fumigatus
Text: as §1

A fumigatus L - 1034 = assay: MIC determination (NCCLS broth method); assay type: cell-based, Aspergillus fumigatus
Text: as §1

A fumigatus PGI - 1023 = assay: MIC determination (NCCLS broth method); assay type: cell-based, Aspergillus fumigatus
Text: as §1

A fumigatus SI-1 - 1019 = assay: MIC determination (NCCLS broth method); assay type: cell-based, Aspergillus fumigatus
Text: as §1

Penicilliuim 2306 = assay: MIC determination (NCCLS broth method); assay type: cell-based, Penicillium
Text: as §1

T. mentagrophyte = assay: Activity against dermatophytes; assay type: cell-based; design: unit not given here
Text: as §1
(§3) A comparative in vitro and in vivo biologically activity data of the compound of our invention, 2-{[1R,2R]-2-(2,4-Difluorophenyl)-2-hydroxy-1-methyl-3-(1H-1,2,4-triazole-1-yl)propyl}-4-[(2′,2′,3′,3′-tetrafluoropropoxyphenyl)-3-(2H,4H)-1,2,4-thiotriazolone (Compound No. 3) with 2-[(1R,2R)-2-(2,4-difluorophenyl)-2-hydroxy-1-methyl-3-(1H-1,2,4-triazol-1-yl)propyl]-4-(2′,2′,3′,3′-tetraflouropropoxyphenyl)-3(2H,4H)-1,2,4-triazolone (TAK 187) and standard antifungal pharmaceuticals is given below: […]

T. rubrum = assay: Activity against dermatophytes; assay type: cell-based; design: unit not given here
Text: as §1, §3

[1] = read-out: Minimum Inhibitory Concentration (MIC)

C[C@@H](n1ncn(-c2ccc(N3CCN(c4ccc(Cl)cc4)CC3)cc2)c1=S)[C@](O)(Cn1cncn1)c1ccc(F)cc1F [Compound No. 1, 2-{[1R,2R]-2-(2,4-Difluorophenyl)-2-hydroxy-1-methyl-3-(1H-1,2,4-triazole-1-yl)propyl}-4-{4-[4-(4-chlorophenyl)-1-piperizinyl]phenyl}-3-(2H,4H)-1,2,4-thiotriazolone]
Minimum Inhibitory Concentration (MIC) (C albicans A-26): 0.016 µg/mL | Minimum Inhibitory Concentration (MIC) (C albicans Y01.19): 0.03 µg/mL | Minimum Inhibitory Concentration (MIC) (A flavus E2 - 1043): 0.008 µg/mL | Minimum Inhibitory Concentration (MIC) (A flavus E4 - 1042): 0.008 µg/mL | Minimum Inhibitory Concentration (MIC) (A flavus P2 - 1045): 0.016 µg/mL | Minimum Inhibitory Concentration (MIC) (A niger E5 - 1047): 0.03 µg/mL | Minimum Inhibitory Concentration (MIC) (A niger P1 - 1046): 0.03 µg/mL | Minimum Inhibitory Concentration (MIC) (Alternaria 1051): 0.03 µg/mL | Minimum Inhibitory Concentration (MIC) (C krusei 6258): 0.06 µg/mL | Minimum Inhibitory Concentration (MIC) (C krusei 766.1): 0.125 µg/mL | Minimum Inhibitory Concentration (MIC) (C parapsilosis 22019): 0.004 µg/mL | Minimum Inhibitory Concentration (MIC) (C tropicalis 750): 0.008 µg/mL | Minimum Inhibitory Concentration (MIC) (Fusarium 1050): 1 µg/mL | Minimum Inhibitory Concentration (MIC) (Fusarium 1827C): 2 µg/mL | Minimum Inhibitory Concentration (MIC) (Fusarium 2960C): 2 µg/mL | Minimum Inhibitory Concentration (MIC) (H capsulatum): 0.06 µg/mL | Minimum Inhibitory Concentration (MIC) (Penicillium 1641): 0.25 µg/mL | Minimum Inhibitory Concentration (MIC) (Penicillium 191): 0.06 µg/mL | Minimum Inhibitory Concentration (MIC) (Penicillium 2548): 0.125 µg/mL | Minimum Inhibitory Concentration (MIC) (Penicillium 3162): 0.03 µg/mL | Minimum Inhibitory Concentration (MIC) (Penicillium H - 1048): 0.03 µg/mL | Minimum Inhibitory Concentration (MIC) (Penicillium I - 1049): 0.03 µg/mL | Minimum Inhibitory Concentration (MIC) (Rhizopus (Ceylon)): 0.125 µg/mL | Minimum Inhibitory Concentration (MIC) (Rhizopus 1052): 0.0005 µg/mL | Minimum Inhibitory Concentration (MIC) (A fumigatus 1008): 0.016 µg/mL | Minimum Inhibitory Concentration (MIC) (A fumigatus I - 1011): 0.016 µg/mL | Minimum Inhibitory Concentration (MIC) (A fumigatus II - 1012): 0.008 µg/mL | Minimum Inhibitory Concentration (MIC) (A fumigatus J - 1032): 0.008 µg/mL | Minimum Inhibitory Concentration (MIC) (A fumigatus K - 1033): 0.008 µg/mL | Minimum Inhibitory Concentration (MIC) (A fumigatus L - 1034): 0.008 µg/mL | Minimum Inhibitory Concentration (MIC) (A fumigatus PGI - 1023): 0.016 µg/mL | Minimum Inhibitory Concentration (MIC) (A fumigatus SI-1 - 1019): 0.016 µg/mL | Minimum Inhibitory Concentration (MIC) (Penicilliuim 2306): 0.016 µg/mL

OC(Cn1cncn1)(Cn1cncn1)c1ccc(F)cc1F [Fluconazole]
MIC (C albicans A-26; Candida albicans, A26, read-out: Minimum Inhibitory Concentration (MIC)): 0.5 µg/mL (≈ 1.63 µM) | MIC (C albicans Y01.19; Candida albicans, read-out: Minimum Inhibitory Concentration (MIC)): 8 µg/mL (≈ 26.1 µM) | MIC (A flavus E2 - 1043; [1]): > 128 µg/mL | MIC (A flavus E4 - 1042; [1]): > 128 µg/mL | MIC (A flavus P2 - 1045; [1]): > 128 µg/mL | MIC (A niger E5 - 1047; [1]): > 128 µg/mL | MIC (A niger P1 - 1046; [1]): 128 µg/mL (≈ 418 µM) | MIC (Alternaria 1051; [1]): > 128 µg/mL | MIC (C krusei 6258; [1]): 32 µg/mL (≈ 104 µM) | MIC (C krusei 766.1; [1]): 128 µg/mL (≈ 418 µM) | MIC (C parapsilosis 22019; [1]): 2 µg/mL (≈ 6.53 µM) | MIC (C tropicalis 750; [1]): 0.5 µg/mL (≈ 1.63 µM) | MIC (Fusarium 1050; [1]): > 128 µg/mL | MIC (Fusarium 1827C; [1]): > 128 µg/mL | MIC (Fusarium 2960C; [1]): > 128 µg/mL | MIC (H capsulatum; [1]): 4 µg/mL (≈ 13.1 µM) | MIC (Penicillium 1641; [1]): 64 µg/mL (≈ 209 µM) | MIC (Penicillium 191; [1]): 64 µg/mL (≈ 209 µM) | MIC (Penicillium 2548; [1]): 128 µg/mL (≈ 418 µM) | MIC (Penicillium 3162; [1]): > 128 µg/mL | MIC (Penicillium H - 1048; H1048, read-out: Minimum Inhibitory Concentration (MIC)): > 128 µg/mL | MIC (Penicillium I - 1049; I1049, read-out: Minimum Inhibitory Concentration (MIC)): > 128 µg/mL | MIC (Rhizopus (Ceylon); [1]): > 128 µg/mL | MIC (Rhizopus 1052; [1]): > 128 µg/mL | MIC (A fumigatus 1008; Aspergillus fumigatus, read-out: Minimum Inhibitory Concentration (MIC)): > 128 µg/mL | MIC (A fumigatus I - 1011; Aspergillus fumigatus, I1011, read-out: Minimum Inhibitory Concentration (MIC)): > 128 µg/mL | MIC (A fumigatus II - 1012; Aspergillus fumigatus, II1012, read-out: Minimum Inhibitory Concentration (MIC)): > 128 µg/mL | MIC (A fumigatus J - 1032; Aspergillus fumigatus, J1032, read-out: Minimum Inhibitory Concentration (MIC)): > 128 µg/mL | MIC (A fumigatus K - 1033; Aspergillus fumigatus, K1033, read-out: Minimum Inhibitory Concentration (MIC)): > 128 µg/mL | MIC (A fumigatus L - 1034; Aspergillus fumigatus, L1034, read-out: Minimum Inhibitory Concentration (MIC)): > 128 µg/mL | MIC (A fumigatus PGI - 1023; Aspergillus fumigatus, PGI1023, read-out: Minimum Inhibitory Concentration (MIC)): > 128 µg/mL | MIC (A fumigatus SI-1 - 1019; Aspergillus fumigatus, SI11019, read-out: Minimum Inhibitory Concentration (MIC)): > 128 µg/mL | MIC (Penicilliuim 2306; Penicillium, read-out: Minimum Inhibitory Concentration (MIC)): > 128 µg/mL | Activity against dermatophytes (T. mentagrophyte): >128 | Activity against dermatophytes (T. rubrum): >128
